The test system of experiment [1] is BxPC-3 tumor cells. As to the kind of experiment: Tumor cell proliferation in vitro, CTG method, BxPC-3. The class given is cell-based. As to conditions: BxPC-3, 72 hours; for IC50: Homo sapiens. The protocol:
(§1) The 50% inhibitory concentrations (IC50) for the cell proliferation of the compound Sp-1, the compound Rp-1 and NUC-1031 in BxPC-3, MIA PaCa-2 and OVCAR-3 tumor cell lines were measured using the CTG method.
(§2) Cells in an exponential growth phase were collected and the viable cells were counted using a Vi-Cell XR cell counter. The cell suspension was adjusted to 3.33×10^4/ml or 5.56×10^4/ml with culture media corresponding to the respective cells. 90 μl of cell suspension was added to each well of a 96-well cell culture plate, and the final cell concentrations of BxPC-3 and MIA PaCa-2 were 3000 cells/well and the final cell concentration of OVCAR-3 was 5000 cells/well. Each test compound was dissolved in DMSO to become 10 mM stock solutions. 3.16× serial dilutions were prepared by the stock solutions and DMSO. Then the dilutions were respectively diluted 100 times with the culture media. Finally, to each well of the respective cell lines was added 10 μl of the corresponding 10-fold solution, triplicate wells were set up for each drug concentration (see the methods for formulating the compounds and the design of sample adding: the plate map for IC50 determination); for the concentration ranges of the test compounds and the reference compounds used for the final tests, please see the methods for formulating the compounds and the design of sample adding on the following pages: the test compounds and the reference compounds were diluted, and the final concentration of DMSO in each well was 0.1%. The cells were placed in an incubator at 37° C. with 5% CO2 to be cultured for 72 hours (BxPC-3, MIA PaCa-2) or 96 hours (OVCAR-3). After 72 or 96 hours of drug treatment, 50 μl (½ culture volume) of CTG solution, which had been melted and equilibrated to room temperature in advance was added to each well according to the operating instruction of CTG; the mixtures were mixed evenly for 2 minutes with a microwell plate shaker, placed at room temperature for 10 minutes, and then an Envision 2104 plate reader was used to measure the values of the […] signals.
(§3) Cell viability was calculated with the formula: Vsample/Vvehicle control×100%, wherein Vsample is the reading of the treatment group and Vvehicle control is the average value of the vehicle control group. Non-linear regression model was used to plot the S-shape dose-survival rate curves and calculate the IC50 values using GraphPad Prism 5.0 software.

Experiment [2] concerns MIA PaCa-2 tumor cells. In words: Tumor cell proliferation in vitro, CTG method, MIA PaCa-2. Format: cell-based, human. The following applies: MIA PaCa-2, 72 hours; for IC50: Homo sapiens. The protocol:
as §1, §2, §3

The subject of experiment [3] is OVCAR-3 tumor cells. As to the kind of experiment: Tumor cell proliferation in vitro, CTG method, OVCAR-3. Format: cell-based. The following applies: OVCAR-3, 96 hours; for IC50: Homo sapiens. How it is done:
as §1, §2, §3

The test system of experiment [4] is BxPC-3, MIA PaCa-2 and OVCAR-3 tumor cells. In words: Tumor cell proliferation in vitro, summary over the three cell lines. Format: cell-based. As to conditions: for IC50: span over BxPC-3, MIA PaCa-2 and OVCAR-3, read-out: IC50 values (cytotoxic effect). The protocol:
as §1, §2, §3

In experiment [5] the test system is MIA PaCa-2 human pancreatic cancer subcutaneous xenograft. In words: Pharmacodynamic evaluation in human pancreatic cancer subcutaneous xenograft mouse model. As to conditions: for Relative tumor inhibition rate TGI: 0.19 mmoL/kg i.p. twice a week for 4 consecutive weeks (gemcitabine 50 mg/kg, others 110 mg/kg). Format: in vivo, BALB/c nude mice. How it is done:
Cell Culture: MIA PaCa-2 cells were cultured in a DMEM culture medium containing 10% fetal bovine serum and 2.5% HS. MIA PaCa-2 cells in an exponential growth phase were collected and resuspended in PBS to a suitable concentration for the subcutaneous tumor inoculation in nude mice.
Animal modeling and Grouping: BALB/c nude mice, female, 6 to 8 weeks old (the predicted weeks of age of the mice when being inoculated with tumor cells), 18 to 22 g, purchased from Shanghai Lingchang Biological Technology Co., LTD. A total of 52 mice (40 plus 30% surplus) were required. After grouping, there were 5 groups in total, each group having 8 mice. All experimental mice were raised in a barrier system and adapted to the environment for at least 7 days in advance. Each mice was subcutaneously inoculated with 3×10^6 MIA PaCa-2 cells on the right back and the cells were resuspended in PBS and matrigel (1:1) (0.1 ml/mice); the tumor growth was observed regularly, and when the tumor volumes reached an average size of 150 to 200 mm^3, the mice were randomly divided into groups according to the size of tumor and body weight of the mice, and the drugs were administered.
Relative tumor inhibition rate TGI(%): TGI %=(1−T/C)×100%. T/C % is the relative tumor growth rate, which is the percentage of the relative tumor volume or tumor weight of the treatment groups with respect to the control group at a certain timepoint. T and C are the relative tumor volume (RTV) or tumor weight (TW), respectively, of the treatment groups and the control group at a particular timepoint.
The calculation formula is as follows: T/C %=TRTV/CRTV×100% (TRTV: the average RTV of a treatment group; CRTV: the average RTV of the vehicle control group; RTV=Vt/V0, V0 is the tumor volume of an animal at the time of grouping, Vt is the tumor volume of an animal after treatment). Or T/C %=TTW/CTW×100% (TTW: the average tumor weight of a treatment group at the end of the experiment; CTW: the average tumor weight of the vehicle control group at the end of the experiment).
(In xenograft studies the graft and the host belong to different species.)

This note sets out measurements from patent US10689413B2, “Composition enriched in single isomer of NUC-1031 and preparation method and use thereof” (BrightGene Bio-Medical Technology Co., Ltd., priority 2015, dated 2020).

“Also recorded” adds a separate entry of the source.

Consider `C[C@H](N[P@@](=O)(OC[C@H]1O[C@@H](n2ccc(N)nc2=O)C(F)(F)[C@@H]1O)Oc1ccccc1)C(=O)OCc1ccccc1` [Compound Rp-1], for which the Max inh. in experiment [1] is recorded as 61.54%; in experiment [2], 69.2%; in experiment [3], 54.19%. The IC50 (in general, the point on the concentration scale where inhibition reaches its midpoint) is 554 pM in experiment [1], 126 pM in experiment [2], 167 pM in experiment [3] and 10 to 1000 pM in experiment [4]. The “Relative tumor inhibition rate TGI” value in experiment [5] turned out to be 22%.
Regarding `C[C@H](N[P@](=O)(OC[C@H]1O[C@@H](n2ccc(N)nc2=O)C(F)(F)[C@@H]1O)Oc1ccccc1)C(=O)OCc1ccccc1` [Compound Sp-1], the Max inh. in experiment [1] is reported as 66.48%; in experiment [2], 71%; in experiment [3], 58.22%. Besides, the IC50 is 45 pM in experiment [1], 12 pM in experiment [2], 13 pM in experiment [3] and 10 to 1000 pM in experiment [4]. The “inhibitory effect on the proliferation activity of tumor cells in vitro relative to compound Rp-1” value in experiment [4] (versus compound Rp-1) is “about 10 times”. Also, the “Relative tumor inhibition rate TGI” value in experiment [5] is 79%. The “in vivo antitumor activity, comparison in words” value in experiment [5] (equimolar dose, i.p., BIW x 4) was “better in vivo anti-tumor activity than the compound Rp-1; also recorded: better in vivo antitumor activity as compared with gemcitabine and the compound Rp-1”.
For the compound `Nc1ccn([C@@H]2O[C@H](CO)[C@@H](O)C2(F)F)c(=O)n1` [Gemcitabine, reference compound], the “Relative tumor inhibition rate TGI” value in experiment [5] stood at 55%.
Consider `C[C@H](NP(=O)(OC[C@H]1O[C@@H](n2ccc(N)nc2=O)C(F)(F)[C@@H]1O)Oc1ccccc1)C(=O)OCc1ccccc1` (stereo partly drawn) [NUC-1031], for which the Max inh. is recorded as 65.82% in experiment [1], 65.03% in experiment [2] and 56.3% in experiment [3]. Moreover, the IC50 in experiment [1] was 263 pM; in experiment [2], 63 pM; in experiment [3] it was 95 pM; in experiment [4], 10 to 1000 pM. Also, the “Relative tumor inhibition rate TGI” value in experiment [5] came to 54%.
